Results as given in doi:10.1101/767673v1 (bioRxiv, 2019).
Where a SMILES comes first, the peptide text is derived from it. Bridges are numbered along the chain shown (N, C = ends). [ ]: non-standard residue; d: D form. dPhe(4-CF3) = N[C@H](Cc1ccc(C(F)(F)F)cc1)C(=O)O; dTrp(6-F) = N[C@H](Cc1c[nH]c2cc(F)ccc12)C(=O)O; S8 = C=CCCCCCC[C@](C)(N)C(=O)O; R5 = C=CCCC[C@@](C)(N)C(=O)O

How the values were obtained:
[1] = target: human Mdm2 protein (amino acids 1–125) (Homo sapiens, UniProt Q00987); assay: Isothermal titration calorimetry; type: binding; details: PBS pH 7.2, 3% DMSO, 0.001% Tween-20, duplicates
Mdm2 (1-125) = Mdm2 (1-125) (Homo sapiens, UniProt Q00987); assay: Competitive fluorescence anisotropy / FP binding assay, Mdm2; details: FP competition assay
Mdm4 = target: T1, Mdm4 (Homo sapiens, UniProt O15151); assay: Competitive fluorescence anisotropy / FP binding assay, Mdm4; details: FP competition assay
T1 sequence (O15151 1-490): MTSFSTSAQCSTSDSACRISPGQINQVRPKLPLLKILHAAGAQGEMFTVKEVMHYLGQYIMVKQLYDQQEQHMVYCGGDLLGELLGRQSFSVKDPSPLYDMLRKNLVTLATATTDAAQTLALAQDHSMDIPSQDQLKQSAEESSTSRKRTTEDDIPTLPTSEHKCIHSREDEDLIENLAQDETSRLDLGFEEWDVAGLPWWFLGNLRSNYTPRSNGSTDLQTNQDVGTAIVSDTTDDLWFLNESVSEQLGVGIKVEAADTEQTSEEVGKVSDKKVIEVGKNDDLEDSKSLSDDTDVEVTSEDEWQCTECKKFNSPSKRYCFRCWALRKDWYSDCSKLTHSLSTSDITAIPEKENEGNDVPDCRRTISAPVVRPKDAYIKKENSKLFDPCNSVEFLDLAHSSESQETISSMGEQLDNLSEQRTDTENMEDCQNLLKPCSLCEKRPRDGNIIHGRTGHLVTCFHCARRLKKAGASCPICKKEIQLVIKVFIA

SMILES | ITC enthalpy of binding (ΔH) to Mdm2 [1] | Binding to Mdm2 in the FP assay (Mdm2 (1-125)) | Binding to Mdm4 in the FP assay (Mdm4)
CC(C)C[C@@H](NC(=O)[C@@H](CC(C)C)NC(=O)[C@@H](CCCCN)NC(=O)[C@@H](CCC(=O)O)NC(=O)[C@@H](Cc1ccc(C(F)(F)F)cc1)NC(=O)[C@@H](CC(N)=O)NC(=O)[C@@]1(C)CCCC=CCCC[C@@](C)(N)C(=O)N[C@H](C)C(=O)N[C@H](Cc2c[nH]c3cc(F)ccc23)C(=O)N[C@H](Cc2ccc(O)cc2)C(=O)N1)C(=O)N[C@H](CCCNC(=N)N)C(N)=O [^dPMI-δ(1-5)] | -15.8 kcal/mol | – | –
CC(C)C[C@@H](NC(=O)[C@@H](CC(C)C)NC(=O)[C@@]1(C)CCCC=CCCCCCC[C@](C)(NC(=O)[C@H](N)[C@H](C)O)C(=O)N[C@H](Cc2c[nH]c3cc(F)ccc23)C(=O)N[C@H](Cc2ccc(O)cc2)C(=O)N[C@H](C)C(=O)N[C@H](CC(N)=O)C(=O)N[C@H](Cc2ccc(C(F)(F)F)cc2)C(=O)N[C@H](CCC(=O)O)C(=O)N1)C(=O)N[C@H](CCCNC(=N)N)C(N)=O [^dPMI-δ(2-9)] (H-[dT][S8][dTrp(6-F)][dY][dA][dN][dPhe(4-CF3)][dE][R5][dL][dL][dR]-NH2; staple 2-9; N-terminus and C-terminus assumed) | – | no binding | displayed no binding
